Reference: patent US20100003217A1, “Compounds and Pharmaceutical Compositions for the Treatment of Viral Infections” (priority 2008, published 2010)
Where “and” joins values, the source holds several entries; their conditions need not be identical. Equal entries are not always repeated.

System: rat primary hepatocytes
Assay: Metabolic disposition of [^14C]-Compound 1 and [^14C]-2′-C-methyl guanosine in rat primary hepatocytes (incubation medium, cellular extracts, nucleotide levels)
Type: in vitro ADME, Sprague Dawley rat
Description: Primary hepatocytes: Freshly isolated cells from animal and human liver were obtained in suspension on ice. Cells were pelleted by centrifugation at 70-75×g (rat) or 95-90×g (monkey and human) and resuspended at 0.8 million cells per mL of platting medium (William's E supplemented with 5% FBS, 0.5% penicillin-streptomycin, 1% L-glutamine, 4 μg/mL insulin and 1 μM dexamethasone). Multi-well collagen I-coated plates (rat tail collagen type I; 12- or 6-well) were then seeded by addition of 1 mL (12-well; 0.8 million cells/well) or 2 mL (6-well; 1.6 million cells/well) of cell suspension. The plates were gently shaken to evenly distribute the cells and placed in an incubator at 37° C. for approximately 4 to 6 hours to allow cells to attach. Once cells were attached, the platting medium was removed and replaced with hepatocyte culture medium (William's E supplemented with penicillin-streptomycin, 1% L-glutamine, 1% insulin-transferrin-selenium and 0.1 μM dexamethasone). Cells were left overnight in an incubator at 37° C. to acclimatize to culture and the medium.
Hepatocyte incubations with radiolabeled Compound 1 and 2′-C-methyl guanosine, both labeled in the C-8 position of the guanine moiety, were conducted at a final volume of 2.0 mL hepatocyte culture medium/well ([…]). Culture medium from overnight incubation of cells was removed and replaced with fresh medium, pre-warmed to 37° C., containing 1 or 10 μM [^14C]-Compound 1 ([…]) or [^14C]-2′-C-methyl guanosine (127 DPM/μmol) from a stock solution in DMSO (final DMSO concentration was 0.1%) or 50% ethanol (final ethanol concentration was 0.2%). After 1, 4, 8 and 24 hours, 0.5-1.0 mL of incubation medium was removed and stored at −20° C. until analysis (described below). The remaining medium was discarded and cell monolayers were carefully washed two times with ice-cold PBS. Following the last wash, all PBS was carefully removed and 1.0 mL of extraction solution (ice-cold 70% methanol) added. Cells were scrapped off and suspended in the extraction solution, transferred to 2 mL polypropylene microfuge tubes and intracellular contents extracted overnight at −20° C.
Preliminary identification of putative metabolites was conducted by comparing the retention time of observed metabolites in incubation medium and cellular extracts with retention times obtained with chemically synthesized standards using the chromatography conditions described below. Further identification of 2′-C-methyl guanosine nucleotides (mono-, di- and triphosphate) was carried out by incubating cellular extract samples with alkaline phosphatase (10 units for 60 min at 37° C.) and comparing the HPLC retention times of the resulting nucleosides with that of authentic 2′-C-methyl guanosine.
Cellular extracts were prepared by centrifugation at 16,000 RCF using an Eppendorf microcentrifuge (Eppendorf, Model 5415D) for 10 min to remove cellular debris. An aliquot of 5-10 μL of the supernatant was added to 5 mL of EcoLite™ (MP, Irvine, Calif.) liquid scintillation cocktail and radioactivity measured by liquid scintillation counting (LSC) using a Beckman Coulter LS6500 multipurpose liquid scintillation counter (Beckman Instruments, Fullerton, Calif.). The remaining sample was then dried using a Labconco refrigerated centrivap concentrator (Labconco, Kansas City, Mo.). Dry extracts were reconstituted in 120 μL of HPLC-grade water and centrifuged at 16,000 RCF using an Eppendorf microcentrifuge for 10 min. Prior to HPLC analysis (described below), radioactivity of the concentrated extracts was measured by LSC using 5 μL aliquots. Extraction recovery was then determined by comparing total radioactivity in extracts before and after drying. The remaining extract was then analyzed by HPLC with online radioactivity detection using a Flow Scintillation Analyzer Radiomatic™ 515TR. Radioactivity in the separated components was quantified by integrating the peaks using Flo-One™ Software (Perkin Elmer Life Sciences). […]

[1] = rat hepatocytes (Rs458), 1 μM [^14C]-Compound 1, 1 h
[2] = rat hepatocytes (Rs458), 1 μM [^14C]-Compound 1, 8 h
[3] = rat hepatocytes (Rs458), 1 μM [^14C]-Compound 1, 24 h
[4] = rat hepatocytes Rs448, 10 μM [^14C]-2′-C-methyl guanosine, 1 h
[5] = rat hepatocytes Rs448, 10 μM [^14C]-2′-C-methyl guanosine, 4 h
[6] = rat hepatocytes Rs448, 10 μM [^14C]-2′-C-methyl guanosine, 8 h
[7] = rat hepatocytes Rs448, 10 μM [^14C]-2′-C-methyl guanosine, 24 h
[8] = rat hepatocytes Rs458, 1 μM [^14C]-2′-C-methyl guanosine, 1 h
[9] = rat hepatocytes Rs458, 1 μM [^14C]-2′-C-methyl guanosine, 8 h
[10] = rat hepatocytes Rs458, 1 μM [^14C]-2′-C-methyl guanosine, 24 h
[11] = rat hepatocytes Rs458, 10 μM [^14C]-2′-C-methyl guanosine, 1 h
[12] = rat hepatocytes Rs458, 10 μM [^14C]-2′-C-methyl guanosine, 4 h
[13] = rat hepatocytes Rs458, 10 μM [^14C]-2′-C-methyl guanosine, 8 h
[14] = rat hepatocytes Rs458, 10 μM [^14C]-2′-C-methyl guanosine, 24 h

SMILES: C[C@@]1(O)[C@H](O)[C@@H](COP(=O)(O)OP(=O)(O)O)O[C@H]1n1cnc2c(=O)[nH]c(N)nc21 [Compound 6, [(2R)-2-methyl-β-D-ribofuranosyl]guanine 5′-diphosphate]
- metabolites observed in cellular extracts (% of total radioactivity) (rat hepatocytes (Rs448, Rs458), 10 μM [^14C]-Compound 1, 1 h, listed as Compd 6): 11.4% and 12.3%
- metabolites observed in cellular extracts (% of total radioactivity) (rat hepatocytes (Rs448, Rs458), 10 μM [^14C]-Compound 1, 4 h, listed as Compd 6): 13.4% and 16.7%
- metabolites observed in cellular extracts (% of total radioactivity) (rat hepatocytes (Rs448, Rs458), 10 μM [^14C]-Compound 1, 8 h, listed as Compd 6): 12.7% and 16.8%
- metabolites observed in cellular extracts (% of total radioactivity) (rat hepatocytes (Rs448, Rs458), 10 μM [^14C]-Compound 1, 24 h, listed as Compd 6): 15.2% and 14.6%
- 2′-C-methyl guanosine nucleotide levels in cellular extracts (rat hepatocytes (Rs458), 1 μM [^14C]-Compound 1, 0 h): BLD (BLD = below limit of detection (0.02 pmol/million cells))
- 2′-C-methyl guanosine nucleotide levels in cellular extracts [1]: 20.0 pmol/million cells
- metabolites observed in cellular extracts (% of total radioactivity) [1]: 13.0%
- 2′-C-methyl guanosine nucleotide levels in cellular extracts [2]: 41.2 pmol/million cells
- metabolites observed in cellular extracts (% of total radioactivity) [2]: 13.27%
- 2′-C-methyl guanosine nucleotide levels in cellular extracts [3]: 30.0 pmol/million cells
- metabolites observed in cellular extracts (% of total radioactivity) [3]: 18.1%
- 2′-C-methyl guanosine nucleotide levels in cellular extracts (rat hepatocytes Rs448, 10 μM [^14C]-2′-C-methyl guanosine, 0 h): 0 pmol/million cells
- 2′-C-methyl guanosine nucleotide levels in cellular extracts [4]: 7.00 pmol/million cells
- Major metabolites observed in cellular extracts (% of total radioactivity) [4]: 1.24 % of total radioactivity
- 2′-C-methyl guanosine nucleotide levels in cellular extracts [5]: 28.0 pmol/million cells
- Major metabolites observed in cellular extracts (% of total radioactivity) [5]: 3.54 % of total radioactivity
- 2′-C-methyl guanosine nucleotide levels in cellular extracts [6]: 47.0 pmol/million cells
- Major metabolites observed in cellular extracts (% of total radioactivity) [6]: 4.76 % of total radioactivity
- 2′-C-methyl guanosine nucleotide levels in cellular extracts [7]: 101 pmol/million cells
- Major metabolites observed in cellular extracts (% of total radioactivity) [7]: 10.4 % of total radioactivity
- 2′-C-methyl guanosine nucleotide levels in cellular extracts (rat hepatocytes Rs448, 10 μM [^14C]-Compound 1, 0 h): 0 pmol/million cells
- 2′-C-methyl guanosine nucleotide levels in cellular extracts (rat hepatocytes Rs448, 10 μM [^14C]-Compound 1, 1 h): 112 pmol/million cells
- 2′-C-methyl guanosine nucleotide levels in cellular extracts (rat hepatocytes Rs448, 10 μM [^14C]-Compound 1, 4 h): 269 pmol/million cells
- 2′-C-methyl guanosine nucleotide levels in cellular extracts (rat hepatocytes Rs448, 10 μM [^14C]-Compound 1, 8 h): 311 pmol/million cells
- 2′-C-methyl guanosine nucleotide levels in cellular extracts (rat hepatocytes Rs448, 10 μM [^14C]-Compound 1, 24 h): 215 pmol/million cells
- 2′-C-methyl guanosine nucleotide levels in cellular extracts (rat hepatocytes Rs458, 1 μM [^14C]-2′-C-methyl guanosine, 0 h): BLD (BLD = below limit of detection (0.02 pmol/million cells))
- 2′-C-methyl guanosine nucleotide levels in cellular extracts [8]: 0.85 pmol/million cells
- Major metabolites observed in cellular extracts (% of total radioactivity) [8]: 1.50 % of total radioactivity
- 2′-C-methyl guanosine nucleotide levels in cellular extracts [9]: 4.00 pmol/million cells
- Major metabolites observed in cellular extracts (% of total radioactivity) [9]: 5.14 % of total radioactivity
- 2′-C-methyl guanosine nucleotide levels in cellular extracts [10]: 8.00 pmol/million cells
- Major metabolites observed in cellular extracts (% of total radioactivity) [10]: 9.88 % of total radioactivity
- 2′-C-methyl guanosine nucleotide levels in cellular extracts (rat hepatocytes Rs458, 10 μM [^14C]-2′-C-methyl guanosine, 0 h): 0 pmol/million cells
- 2′-C-methyl guanosine nucleotide levels in cellular extracts [11]: 5.60 pmol/million cells
- Major metabolites observed in cellular extracts (% of total radioactivity) [11]: 1.08 % of total radioactivity
- 2′-C-methyl guanosine nucleotide levels in cellular extracts [12]: 28.0 pmol/million cells
- Major metabolites observed in cellular extracts (% of total radioactivity) [12]: 4.01 % of total radioactivity
- 2′-C-methyl guanosine nucleotide levels in cellular extracts [13]: 48.0 pmol/million cells
- Major metabolites observed in cellular extracts (% of total radioactivity) [13]: 5.42 % of total radioactivity
- 2′-C-methyl guanosine nucleotide levels in cellular extracts [14]: 91.0 pmol/million cells
- Major metabolites observed in cellular extracts (% of total radioactivity) [14]: 9.65 % of total radioactivity
- 2′-C-methyl guanosine nucleotide levels in cellular extracts (rat hepatocytes Rs458, 10 μM [^14C]-Compound 1, 0 h): 0 pmol/million cells
- 2′-C-methyl guanosine nucleotide levels in cellular extracts (rat hepatocytes Rs458, 10 μM [^14C]-Compound 1, 1 h): 129 pmol/million cells
- 2′-C-methyl guanosine nucleotide levels in cellular extracts (rat hepatocytes Rs458, 10 μM [^14C]-Compound 1, 4 h): 326 pmol/million cells
- 2′-C-methyl guanosine nucleotide levels in cellular extracts (rat hepatocytes Rs458, 10 μM [^14C]-Compound 1, 8 h): 375 pmol/million cells
- 2′-C-methyl guanosine nucleotide levels in cellular extracts (rat hepatocytes Rs458, 10 μM [^14C]-Compound 1, 24 h): 207 pmol/million cells
